Experiments:
hCav1.2 = hCav1.2 (Homo sapiens, UniProt Q13936); assay: Automated patch clamp, hCav1.2 current block; details: for IC50: log IC50, half-maximal inhibitory concentration
Description: Peak current was measured during the step to 0 mV. Leak current was measured after applying a saturating concentration of a blocker such as cadmium (200 µM) at the end of each experiment to completely block hCav1.2 current.
Concentration-response relationships for each test article were independently investigated, i.e., each cell received only one test article, typically evaluating multiple concentrations in a cumulative fashion (lowest to highest concentrations). However, some platforms tested only one concentration per well. Each concentration response was based on a minimum of four concentrations, with a minimum of three wells used for each concentration. In cases of high variability, more cells per concentration were recorded. Prior to drug addition, cells received an addition of vehicle to measure non-test article-related effects such as addition artifacts. At the end of the experiment, a supramaximal concentration of a known inhibitory reference compound was applied to assess leak current and appropriate responsiveness of the test system. While it was recommended that a separate group of cells (n ≥ 3) be recorded for each experimental day to determine the baseline response to vehicle and to address day-to-day variability, this was not verified.
These criteria were applied to all APC platforms.
The steady state current at each concentration was used to determine the concentration-response relationships. Mean concentration-response data were fitted to a standard sigmoidal four-parameter logistic equation (GraphPad Prism 7; GraphPad Inc., La Jolla, CA) of the form: Y=Bottom+(Top−Bottom)/(1+10^∧(LogIC50−X)∗HillSlope) where Y is the current inhibition (in % of pre-drug control), X is the logarithm of drug concentration, and IC50 is the drug concentration producing half-maximal current inhibition. Curve fitting was performed using the following constraints: Top = 100%, Bottom = 0%, Hill Slope <2. No curve fitting was performed in cases with an obvious lack of a concentration-dependent current inhibition and/or small effect size (approximately ≤20%).

[1] = based on CiPA evaluations; cited from earlier work
hERG = hERG (Homo sapiens, UniProt Q12809); assay: Automated patch clamp, hERG current block (consensus step-ramp protocol); details: for hERG K+ current inhibition, Mean, at maximal concentration: max conc [mol/L]: bep 3.00E-07, cpz 3.00E-06, cis 3.00E-07, dil 1.00E-04, dof 1.00E-07, mex 1.00E-04, ond 1.00E-05, qui 1.00E-05, ran 1.00E-04, sot 3.00E-04, ter 3.00E-07, ver 1.00E-06; for hERG K+ current inhibition, Mean, at minimal concentration: min conc [mol/L]: bep 1.00E-08, cpz 1.00E-07, cis 1.00E-09, dil 3.00E-06, dof 1.00E-09, mex 1.00E-06, ond 3.00E-07, qui 1.00E-07, ran 3.00E-06, sot 1.00E-05, ter 1.00E-08, ver 3.00E-08
[2] = s03_p2, HEK293, room temperature
[3] = s16_p3, HEK293, room temperature

Sequence of hCav1.2 (Q13936 whole entry): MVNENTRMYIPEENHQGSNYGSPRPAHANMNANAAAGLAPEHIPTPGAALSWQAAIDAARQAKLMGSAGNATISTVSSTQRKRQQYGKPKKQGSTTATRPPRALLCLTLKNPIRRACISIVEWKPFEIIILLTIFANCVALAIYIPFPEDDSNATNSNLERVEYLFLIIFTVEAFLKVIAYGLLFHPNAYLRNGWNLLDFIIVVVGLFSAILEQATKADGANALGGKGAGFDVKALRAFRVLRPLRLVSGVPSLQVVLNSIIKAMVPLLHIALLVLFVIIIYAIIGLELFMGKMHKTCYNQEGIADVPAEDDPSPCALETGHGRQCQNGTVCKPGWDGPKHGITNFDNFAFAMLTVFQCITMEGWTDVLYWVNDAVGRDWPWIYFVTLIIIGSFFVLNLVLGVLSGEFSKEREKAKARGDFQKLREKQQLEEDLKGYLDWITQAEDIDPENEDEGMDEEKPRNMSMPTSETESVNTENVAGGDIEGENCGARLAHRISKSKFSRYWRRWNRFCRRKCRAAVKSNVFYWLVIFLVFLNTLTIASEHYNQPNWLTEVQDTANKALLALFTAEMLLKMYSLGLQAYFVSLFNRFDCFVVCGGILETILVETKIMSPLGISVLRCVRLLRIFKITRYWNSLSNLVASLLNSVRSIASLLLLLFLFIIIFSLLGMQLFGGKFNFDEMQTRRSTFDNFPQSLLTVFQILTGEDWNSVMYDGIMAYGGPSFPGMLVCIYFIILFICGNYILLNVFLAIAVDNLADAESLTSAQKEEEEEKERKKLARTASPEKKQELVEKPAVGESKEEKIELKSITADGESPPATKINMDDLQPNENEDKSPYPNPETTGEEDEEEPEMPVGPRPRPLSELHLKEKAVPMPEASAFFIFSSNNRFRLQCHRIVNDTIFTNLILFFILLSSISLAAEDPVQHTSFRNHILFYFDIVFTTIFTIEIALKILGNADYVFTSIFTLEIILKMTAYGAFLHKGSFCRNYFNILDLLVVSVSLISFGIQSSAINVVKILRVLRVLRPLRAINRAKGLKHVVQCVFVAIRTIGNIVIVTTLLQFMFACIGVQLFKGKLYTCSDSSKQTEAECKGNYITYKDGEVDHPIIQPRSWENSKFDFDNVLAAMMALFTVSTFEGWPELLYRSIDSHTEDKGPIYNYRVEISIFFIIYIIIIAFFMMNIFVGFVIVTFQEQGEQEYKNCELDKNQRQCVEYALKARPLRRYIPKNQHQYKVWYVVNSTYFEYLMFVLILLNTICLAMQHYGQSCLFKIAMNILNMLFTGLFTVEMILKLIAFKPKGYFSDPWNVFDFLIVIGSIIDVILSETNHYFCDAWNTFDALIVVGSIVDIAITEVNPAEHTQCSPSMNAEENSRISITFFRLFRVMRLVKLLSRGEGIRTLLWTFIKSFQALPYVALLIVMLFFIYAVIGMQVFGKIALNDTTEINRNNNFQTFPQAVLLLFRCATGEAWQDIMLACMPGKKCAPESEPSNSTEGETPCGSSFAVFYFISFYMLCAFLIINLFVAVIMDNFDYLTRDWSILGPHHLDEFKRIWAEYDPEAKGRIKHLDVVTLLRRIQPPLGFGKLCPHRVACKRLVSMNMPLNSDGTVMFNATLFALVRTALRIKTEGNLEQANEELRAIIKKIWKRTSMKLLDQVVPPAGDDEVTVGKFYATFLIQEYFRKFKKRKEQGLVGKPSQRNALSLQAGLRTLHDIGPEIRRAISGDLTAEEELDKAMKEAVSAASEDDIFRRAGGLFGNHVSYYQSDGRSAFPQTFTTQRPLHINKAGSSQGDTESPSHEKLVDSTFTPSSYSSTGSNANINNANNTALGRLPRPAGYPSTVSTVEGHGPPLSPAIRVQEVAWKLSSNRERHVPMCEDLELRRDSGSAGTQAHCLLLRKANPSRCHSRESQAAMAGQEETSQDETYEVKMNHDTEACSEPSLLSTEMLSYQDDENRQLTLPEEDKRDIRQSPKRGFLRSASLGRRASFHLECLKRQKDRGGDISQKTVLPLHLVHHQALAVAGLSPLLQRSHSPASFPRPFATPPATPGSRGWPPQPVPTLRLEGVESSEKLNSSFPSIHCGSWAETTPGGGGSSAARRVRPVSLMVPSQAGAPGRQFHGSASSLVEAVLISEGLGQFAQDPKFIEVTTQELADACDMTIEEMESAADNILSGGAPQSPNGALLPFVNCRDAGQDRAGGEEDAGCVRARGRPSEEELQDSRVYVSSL
Sequence of hCav1.2 (Q08289 whole entry partner): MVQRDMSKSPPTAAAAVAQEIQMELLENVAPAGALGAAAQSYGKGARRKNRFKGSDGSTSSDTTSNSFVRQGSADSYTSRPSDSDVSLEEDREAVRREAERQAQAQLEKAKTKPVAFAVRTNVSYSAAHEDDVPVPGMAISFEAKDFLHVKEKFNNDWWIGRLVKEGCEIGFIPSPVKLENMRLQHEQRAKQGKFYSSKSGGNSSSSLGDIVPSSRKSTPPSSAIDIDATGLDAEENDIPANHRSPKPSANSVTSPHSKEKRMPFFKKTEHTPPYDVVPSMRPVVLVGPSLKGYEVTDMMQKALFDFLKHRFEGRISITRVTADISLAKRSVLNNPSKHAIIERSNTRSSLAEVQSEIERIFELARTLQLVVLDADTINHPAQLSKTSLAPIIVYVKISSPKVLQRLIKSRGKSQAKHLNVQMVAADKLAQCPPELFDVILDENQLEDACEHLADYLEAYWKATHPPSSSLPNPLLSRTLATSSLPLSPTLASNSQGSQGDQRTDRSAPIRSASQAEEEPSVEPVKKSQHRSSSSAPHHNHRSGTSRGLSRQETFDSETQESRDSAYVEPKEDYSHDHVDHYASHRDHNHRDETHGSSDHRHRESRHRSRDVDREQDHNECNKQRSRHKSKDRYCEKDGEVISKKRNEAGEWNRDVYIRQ
Sequence of hCav1.2 (P54289 25-956 partner limits assumed): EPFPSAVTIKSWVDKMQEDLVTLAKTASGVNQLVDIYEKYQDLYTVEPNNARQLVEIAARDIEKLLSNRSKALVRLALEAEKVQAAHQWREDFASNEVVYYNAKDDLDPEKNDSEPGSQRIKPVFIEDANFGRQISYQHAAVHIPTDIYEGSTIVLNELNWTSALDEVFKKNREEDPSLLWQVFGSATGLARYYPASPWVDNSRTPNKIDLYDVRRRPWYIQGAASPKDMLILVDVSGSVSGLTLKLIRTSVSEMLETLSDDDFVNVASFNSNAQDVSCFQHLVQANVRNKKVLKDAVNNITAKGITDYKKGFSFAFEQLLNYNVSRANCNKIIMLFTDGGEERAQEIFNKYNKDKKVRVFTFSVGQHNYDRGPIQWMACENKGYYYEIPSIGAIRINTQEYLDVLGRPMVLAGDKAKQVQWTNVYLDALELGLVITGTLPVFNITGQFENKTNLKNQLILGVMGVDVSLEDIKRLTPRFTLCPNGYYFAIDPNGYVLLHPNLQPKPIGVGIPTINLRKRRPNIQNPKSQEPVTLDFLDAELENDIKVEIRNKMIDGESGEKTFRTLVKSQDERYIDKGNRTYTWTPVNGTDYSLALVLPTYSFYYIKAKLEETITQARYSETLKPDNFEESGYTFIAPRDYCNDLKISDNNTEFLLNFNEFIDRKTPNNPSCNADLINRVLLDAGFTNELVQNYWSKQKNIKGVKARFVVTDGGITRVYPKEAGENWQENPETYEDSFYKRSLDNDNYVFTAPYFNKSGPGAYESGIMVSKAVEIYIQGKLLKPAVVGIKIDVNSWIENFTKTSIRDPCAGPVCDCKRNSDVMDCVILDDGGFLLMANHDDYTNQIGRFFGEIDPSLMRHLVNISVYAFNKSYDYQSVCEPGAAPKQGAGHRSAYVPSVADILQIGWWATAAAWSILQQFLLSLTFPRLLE
Sequence of hCav1.2 (P54289 957-1103 partner limits assumed): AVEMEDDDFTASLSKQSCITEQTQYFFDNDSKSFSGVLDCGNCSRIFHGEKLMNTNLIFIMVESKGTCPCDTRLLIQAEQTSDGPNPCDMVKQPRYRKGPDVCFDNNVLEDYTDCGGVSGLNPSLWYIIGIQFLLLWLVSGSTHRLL
Sequence of hERG (Q12809 whole entry): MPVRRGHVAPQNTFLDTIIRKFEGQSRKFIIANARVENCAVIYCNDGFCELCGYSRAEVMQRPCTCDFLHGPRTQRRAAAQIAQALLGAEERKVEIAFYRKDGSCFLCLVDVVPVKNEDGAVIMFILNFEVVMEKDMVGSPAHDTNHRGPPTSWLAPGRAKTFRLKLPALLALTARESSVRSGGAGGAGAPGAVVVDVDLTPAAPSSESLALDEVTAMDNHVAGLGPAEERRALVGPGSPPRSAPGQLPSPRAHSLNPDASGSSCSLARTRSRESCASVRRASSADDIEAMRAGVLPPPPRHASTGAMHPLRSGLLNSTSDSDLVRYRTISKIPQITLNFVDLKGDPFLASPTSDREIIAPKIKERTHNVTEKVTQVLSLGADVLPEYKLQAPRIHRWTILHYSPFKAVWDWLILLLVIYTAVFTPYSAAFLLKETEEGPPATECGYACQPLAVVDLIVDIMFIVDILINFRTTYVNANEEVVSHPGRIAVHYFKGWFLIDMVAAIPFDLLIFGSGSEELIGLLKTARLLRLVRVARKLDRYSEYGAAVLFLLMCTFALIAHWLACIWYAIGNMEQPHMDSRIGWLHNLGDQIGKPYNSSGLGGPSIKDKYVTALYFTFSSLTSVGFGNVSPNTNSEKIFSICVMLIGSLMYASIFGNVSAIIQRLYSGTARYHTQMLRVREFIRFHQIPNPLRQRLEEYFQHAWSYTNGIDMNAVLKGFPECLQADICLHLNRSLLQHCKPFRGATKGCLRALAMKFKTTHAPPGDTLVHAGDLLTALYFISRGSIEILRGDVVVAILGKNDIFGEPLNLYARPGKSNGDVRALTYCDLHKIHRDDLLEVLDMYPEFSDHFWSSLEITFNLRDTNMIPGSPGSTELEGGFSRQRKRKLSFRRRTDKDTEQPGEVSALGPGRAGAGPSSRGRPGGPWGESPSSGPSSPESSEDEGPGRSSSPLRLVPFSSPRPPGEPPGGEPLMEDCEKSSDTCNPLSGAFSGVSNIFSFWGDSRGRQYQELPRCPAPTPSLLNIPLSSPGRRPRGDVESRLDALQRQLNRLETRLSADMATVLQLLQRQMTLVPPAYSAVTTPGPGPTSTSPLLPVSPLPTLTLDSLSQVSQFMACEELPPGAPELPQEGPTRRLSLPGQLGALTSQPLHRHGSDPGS

For `Cc1nccn1CC1CCc2c(c3ccccc3n2C)C1=O` (centres unmarked) [ond, ondansetron], the IC50 (hCav1.2; site s14_p1) was 28.8 µM, the IC50 (hCav1.2; site s16_p3) was 6.61 µM and the “log IC50, half-maximal inhibitory concentration” value (hCav1.2; site s01_p1) was “no inh”. The “Peak hCav1.2 Ca2+ current inhibition, Mean” value (hCav1.2; site s01_p1, 3.00E-07 mol/L) was 3.2%, the “log IC50, half-maximal inhibitory concentration” value (hCav1.2; site s02_p2, corrected for rundown) was “no inh” and the “Peak hCav1.2 Ca2+ current inhibition, Mean” value (hCav1.2; site s02_p2, corrected for rundown, 3.00E-07 mol/L) was -6.3%. For the same compound, the “nH, Hill slope” value (hCav1.2; site s04_p3) was 0.60, the “Peak hCav1.2 Ca2+ current inhibition, Mean” value (hCav1.2; site s04_p3, 1.00E-05 mol/L) was 16.1% and the “Peak hCav1.2 Ca2+ current inhibition, Mean” value (hCav1.2; site s04_p3, 3.00E-07 mol/L) was 2.6%. The “log IC50, half-maximal inhibitory concentration” value (hCav1.2; site s06_p4) was “no inh”, the “Peak hCav1.2 Ca2+ current inhibition, Mean” value (hCav1.2; site s06_p4, 3.00E-07 mol/L) was 18.9% and the “log IC50, half-maximal inhibitory concentration” value (hCav1.2; site s11_p1) was “no inh”. For the same compound, the “Peak hCav1.2 Ca2+ current inhibition, Mean” value (hCav1.2; site s11_p1, 3.00E-07 mol/L) was 19.7%, the “nH, Hill slope” value (hCav1.2; site s14_p1) was 2.00 and the “Peak hCav1.2 Ca2+ current inhibition, Mean” value (hCav1.2; site s14_p1, 3.00E-07 mol/L) was 4.0%. The “nH, Hill slope” value (hCav1.2; site s16_p3) was 0.42, the “Peak hCav1.2 Ca2+ current inhibition, Mean” value (hCav1.2; site s16_p3, 3.00E-07 mol/L) was 20.6% and the “log IC50, half-maximal inhibitory concentration” value (hCav1.2; site s18_p1) was “no inh”. The “Peak hCav1.2 Ca2+ current inhibition, Mean” value (hCav1.2; site s18_p1, 3.00E-07 mol/L) was 16.9%, the “TdP Risk Category” value [1] was “Intermediate” and the inhibition at 1e-05 mol/L (hERG; human, recombinant cells expressing hERG, hERG K+ current inhibition, Mean, site_platform s07_p5, 1.00E-05 mol/L) was 101%. For the same compound, the inhibition at 3e-07 mol/L (hERG; human, recombinant cells expressing hERG, hERG K+ current inhibition, Mean, site_platform s07_p5, 3.00E-07 mol/L) was 17%, the inhibition at 4 min, 1e-05 mol/L (hERG; human, recombinant cells expressing hERG, hERG K+ current inhibition, Mean, site_platform s10_p3, 1.00E-05 mol/L) was 71.8% and the inhibition at 4 min, 3e-07 mol/L (hERG; human, recombinant cells expressing hERG, hERG K+ current inhibition, Mean, site_platform s10_p3, 3.00E-07 mol/L) was 9.7%. It also gave an inhibition at 7 min, 1e-05 mol/L (hERG; human, recombinant cells expressing hERG, hERG K+ current inhibition, Mean, site_platform s11_p1, 1.00E-05 mol/L) of 89.6%, an inhibition at 7 min, 3e-07 mol/L (hERG; human, recombinant cells expressing hERG, hERG K+ current inhibition, Mean, site_platform s11_p1, 3.00E-07 mol/L) of 11.6% and an inhibition at 1e-05 mol/L (hERG; human, recombinant cells expressing hERG, hERG K+ current inhibition, Mean, site_platform s12_p2, 1.00E-05 mol/L) of 91.6%. It also gave an inhibition at 3e-07 mol/L (hERG; human, recombinant cells expressing hERG, hERG K+ current inhibition, Mean, site_platform s12_p2, 3.00E-07 mol/L) of 19.3%, an inhibition at 1e-05 mol/L (hERG; human, recombinant cells expressing hERG, hERG K+ current inhibition, Mean, site_platform s13_p2, 1.00E-05 mol/L) of 90% and an inhibition at 3e-07 mol/L (hERG; human, recombinant cells expressing hERG, hERG K+ current inhibition, Mean, site_platform s13_p2, 3.00E-07 mol/L) of 11.4%. The inhibition at 7 min, 1e-05 mol/L (hERG; human, recombinant cells expressing hERG, hERG K+ current inhibition, Mean, site_platform s14_p1, 1.00E-05 mol/L) was 89.4%, the inhibition at 7 min, 3e-07 mol/L (hERG; human, recombinant cells expressing hERG, hERG K+ current inhibition, Mean, site_platform s14_p1, 3.00E-07 mol/L) was 58.7% and the “hERG K+ current nH, Hill slope” value (hERG; s01_p1, CHO, 23 °C) was 1.06. For the same compound, the “hERG K+ current inhibition, Mean, at maximal concentration” value (hERG; s01_p1, CHO, 23 °C) was 83.1%, the “hERG K+ current inhibition, Mean, at minimal concentration” value (hERG; s01_p1, CHO, 23 °C) was 8.8% and the “hERG K+ current nH, Hill slope” value (hERG; s02_p2, HEK293, 22–26 °C) was 1.07. For the same compound, the “hERG K+ current inhibition, Mean, at maximal concentration” value (hERG; s02_p2, HEK293, 22–26 °C) was 79.8%, the “hERG K+ current inhibition, Mean, at minimal concentration” value (hERG; s02_p2, HEK293, 22–26 °C) was 6.1% and the “hERG K+ current nH, Hill slope” value (hERG; [2]) was 1.08. For the same compound, the “hERG K+ current inhibition, Mean, at maximal concentration” value (hERG; [2]) was 99.9%, the “hERG K+ current inhibition, Mean, at minimal concentration” value (hERG; [2]) was 37.2% and the “hERG K+ current nH, Hill slope” value (hERG; s04_p3, CHO, room temperature) was 0.97. For the same compound, the “hERG K+ current inhibition, Mean, at maximal concentration” value (hERG; s04_p3, CHO, room temperature) was 90.6%, the “hERG K+ current inhibition, Mean, at minimal concentration” value (hERG; s04_p3, CHO, room temperature) was 22.1% and the “hERG K+ current nH, Hill slope” value (hERG; s05_p4, HEK293, 22–24 °C) was 1.32. The “hERG K+ current inhibition, Mean, at maximal concentration” value (hERG; s05_p4, HEK293, 22–24 °C) was 93.2%, the “hERG K+ current inhibition, Mean, at minimal concentration” value (hERG; s05_p4, HEK293, 22–24 °C) was 9.6% and the “hERG K+ current nH, Hill slope” value (hERG; s15_p1, HEK293, 22–23 °C) was 0.88. For the same compound, the “hERG K+ current inhibition, Mean, at maximal concentration” value (hERG; s15_p1, HEK293, 22–23 °C) was 87.4%, the “hERG K+ current inhibition, Mean, at minimal concentration” value (hERG; s15_p1, HEK293, 22–23 °C) was 25.2% and the “hERG K+ current nH, Hill slope” value (hERG; [3]) was 1.01. For the same compound, the “hERG K+ current inhibition, Mean, at maximal concentration” value (hERG; [3]) was 84.1%, the “hERG K+ current inhibition, Mean, at minimal concentration” value (hERG; [3]) was 11.9% and the “hERG K+ current nH, Hill slope” value (hERG; s18_p1, CHO, 35 °C) was 1.05. The “hERG K+ current inhibition, Mean, at maximal concentration” value (hERG; s18_p1, CHO, 35 °C) was 85.6%, the “hERG K+ current inhibition, Mean, at minimal concentration” value (hERG; s18_p1, CHO, 35 °C) was 12.7% and the “hERG K+ current nH, Hill slope” value (hERG; s19_p3, CHO, room temperature) was 1.01. For the same compound, the “hERG K+ current inhibition, Mean, at maximal concentration” value (hERG; s19_p3, CHO, room temperature) was 92.9%, the “hERG K+ current inhibition, Mean, at minimal concentration” value (hERG; s19_p3, CHO, room temperature) was 25.8% and the “nH (Hill slope), hERG K+ current inhibition” value (hERG; site_platform s07_p5) was 1.26. For the same compound, the “nH (Hill slope), hERG K+ current inhibition” value (hERG; site_platform s10_p3) was 0.98, the “nH (Hill slope), hERG K+ current inhibition” value (hERG; site_platform s11_p1) was 1.10 and the “nH (Hill slope), hERG K+ current inhibition” value (hERG; site_platform s12_p2) was 1.03. The “nH (Hill slope), hERG K+ current inhibition” value (hERG; site_platform s13_p2) was 1.19 and the “nH (Hill slope), hERG K+ current inhibition” value (hERG; site_platform s14_p1) was 0.47.

From article PMC7101356, “Cross-site and cross-platform variability of automated patch clamp assessments of drug effects on human cardiac currents in recombinant cells” (Scientific Reports, 2020)
